Data on 8 compounds can be found in ChEMBL document CHEMBL1201862, “PubChem BioAssay data set” (2004).

Molecules are shown by their SMILES.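 Briefly, cells in 96-well plates were exposed to five compound concentrations for 48 h, and endpoints were estimated by linear interpolation. GI50: concentration for 50% inhibition of growth.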 Active and inactive are the calls of the source. No stated cut-off is given here; in the data, active = GI50 up to about 1.1 µM and inactive = higher.

Some test systems named below: T47D; NCI-H460; HOP-62; SK-OV-3; SK-MEL-5; UACC-62; KM12; HOP-92; K562; HCT-15; LOX IMVI; SW-620; M14; HT-29; SF-295; Hs-578T; BT-549; COLO 205; A549; RXF 393.
Experiment in all cases: growth of human tumour cells (NCI), 48 h

For `N#CC(C#N)=CNCCN1CCN(C=C(C#N)C#N)CC1`, the GI50 in the test on T47D, with NCI-H460, with HOP-62, in the test with SK-OV-3, in the test on SK-MEL-5 and in the test on UACC-62 was > 100 µM (inactive) throughout. In addition, the GI50 in the test with KM12 was > 100 µM (inactive); with HOP-92, > 100 µM (inactive); in the test on K562, > 100 µM (inactive); in the test on HCT-15 it was > 100 µM; in the test on LOX IMVI, > 100 µM (inactive); in the test on SW-620 it was > 100 µM (inactive). Moreover, the GI50 in the test on M14, in the test with HT-29, in the test with SF-295, in the test with Hs-578T, in the test with BT-549 and in the test on COLO 205 was > 100 µM (inactive) throughout. The GI50 in the test on A549 is > 100 µM (inactive).
Take `O=C1CSC(/C=C/c2ccccc2)N1c1ccc(-n2c(-c3ccccc3)nc3ccccc3c2=O)cc1` (stereo not given): the GI50 in the test on T47D is 17 µM (inactive); in the test on NCI-H460, 87.3 µM (inactive); in the test with HOP-62, 42.7 µM (inactive); in the test with SK-OV-3 it was 19.3 µM (inactive); in the test on SK-MEL-5, 68.9 µM (inactive); in the test on UACC-62, 45.1 µM (inactive). For the same compound, the GI50 in the test on KM12 is 33.1 µM (inactive); in the test with HOP-92, > 100 µM (inactive); in the test with K562 it was > 100 µM (inactive); in the test on HCT-15 it was 86.9 µM; with LOX IMVI, 95.3 µM (inactive); with SW-620, > 10 µM (inactive). Besides, the GI50 in the test with M14, with HT-29, in the test on SF-295, in the test with Hs-578T, with BT-549 and with COLO 205 was > 100 µM (inactive) throughout. Besides, in the test on A549, the GI50 is > 100 µM (inactive).
Turning to `O=C(O)CSC(NC(=O)C(C(F)(F)F)C(F)(F)F)(C(F)(F)F)C(F)(F)F`, the GI50 is > 100 µM (inactive) in the test on T47D; > 100 µM (inactive) with SK-OV-3; > 100 µM (inactive) with SK-MEL-5; > 100 µM (inactive) in the test with K562; > 100 µM in the test with HCT-15; > 100 µM (inactive) in the test on LOX IMVI. Besides, the GI50 in the test with SW-620, in the test on M14, in the test with HT-29, with Hs-578T, in the test on BT-549 and in the test on COLO 205 was > 100 µM (inactive) each time. Besides, the GI50 is > 100 µM (inactive) in the test on A549 and 28.4 µM (inactive) in the test on RXF 393.
For `OC1CC2CCCN(CCc3c1[nH]c1ccccc31)C2` (stereo not given), the GI50 in the test on T47D was > 100 µM (inactive); with NCI-H460, > 100 µM (inactive); in the test on SK-OV-3 it was > 100 µM (inactive); with SK-MEL-5, 47.3 µM (inactive); with UACC-62, 86.7 µM (inactive); with KM12 it was > 100 µM (inactive). Moreover, the GI50 with HOP-92 was > 100 µM (inactive); with K562, > 100 µM (inactive); in the test with HCT-15 it was > 100 µM; with LOX IMVI it was > 100 µM (inactive); in the test on SW-620, > 100 µM (inactive); in the test with HT-29, > 100 µM (inactive). Moreover, the GI50 in the test on SF-295 is > 100 µM (inactive); in the test on Hs-578T, > 100 µM (inactive); with BT-549, 38.3 µM (inactive); in the test with COLO 205, > 100 µM (inactive); with A549 it was > 100 µM (inactive).
On to `ON=C1CCCCC(=NO)CCCC1`, for which the GI50 in the test with T47D, in the test with NCI-H460, in the test with SK-OV-3, in the test on SK-MEL-5, with UACC-62 and with KM12 was > 100 µM (inactive) in each case. In addition, the GI50 is > 100 µM (inactive) in the test with HOP-92; > 100 µM (inactive) in the test with K562; > 100 µM in the test with HCT-15; > 100 µM (inactive) in the test with LOX IMVI; > 100 µM (inactive) with SW-620; > 100 µM (inactive) in the test on HT-29. The GI50 in the test with SF-295, in the test with Hs-578T, in the test on BT-549, in the test with COLO 205 and in the test on A549 was > 100 µM (inactive) throughout.
`CN(C)C1(N(C)C)Oc2c(c(=O)n(C)c(=O)n2C)C(c2ccccc2Br)C1(F)F` (stereo not given): the GI50 in the test on T47D, in the test with NCI-H460, in the test on HOP-62, in the test on SK-OV-3, with SK-MEL-5 and with UACC-62 was > 100 µM (inactive) in each case. For the same compound, the GI50 was > 100 µM (inactive) with KM12; > 100 µM (inactive) with HOP-92; > 100 µM (inactive) with K562; > 100 µM with HCT-15; > 100 µM (inactive) in the test on LOX IMVI; > 100 µM (inactive) in the test on SW-620. The GI50 in the test on M14, with SF-295, with BT-549, in the test with COLO 205, in the test on A549 and with RXF 393 was > 100 µM (inactive) throughout.
As for `CS(=O)(=O)OCCCSCCSCCCOS(C)(=O)=O`, the GI50 in the test with T47D, with NCI-H460, with HOP-62, with SK-OV-3, in the test on SK-MEL-5 and with UACC-62 was > 100 µM (inactive) in each case. In addition, the GI50 in the test with KM12 is > 100 µM (inactive); in the test with HOP-92, 40.2 µM (inactive); in the test with K562, > 100 µM (inactive); in the test on HCT-15, > 100 µM; in the test with LOX IMVI, > 100 µM (inactive); in the test on SW-620, > 100 µM (inactive). Moreover, the GI50 in the test with M14, in the test with HT-29, with SF-295, with BT-549, in the test with COLO 205 and in the test with A549 was > 100 µM (inactive) each time.
As to `CC#CC#C/C=C1/C=CC2(CCCCO2)O1` (stereo not given), the GI50 with T47D is > 100 µM (inactive); in the test on NCI-H460, > 100 µM (inactive); with SK-OV-3, > 100 µM (inactive); in the test with SK-MEL-5, > 100 µM (inactive); in the test on UACC-62 it was 86.5 µM (inactive); with KM12 it was > 100 µM (inactive). In addition, the GI50 is > 100 µM (inactive) with HOP-92; 40.2 µM (inactive) with K562; 56.8 µM in the test on HCT-15; 90.2 µM (inactive) in the test on LOX IMVI; > 100 µM (inactive) with SW-620; > 100 µM (inactive) with M14. Besides, the GI50 with HT-29 is > 100 µM (inactive); in the test with SF-295 it was > 100 µM (inactive); with Hs-578T it was > 100 µM (inactive); in the test on BT-549, > 100 µM (inactive); in the test on COLO 205, 71.1 µM (inactive); in the test with A549 it was > 100 µM (inactive).
